According to patent publication US11566007B2, “Ras inhibitors” (Revolution Medicines, Inc., priority 2019, dated 2023):
pEC50, pIC50: −log10 of the molar value.

Legend:
[1] = tested on: NCI-H358 cells (K-Ras G12C); assay: Potency assay: pERK in NCI-H358 cells; assay type: cell-based, human; conditions: Homo sapiens, NCI-H358; H358 KRAS G12C; read-out: pERK EC50
In short: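 4 h cpd, 37 °C; 10-pt 3-fold series, 10 mM DMSO top stock, duplicates. Readout pERK: AlphaLISA SureFire Ultra or In-Cell Western (IR-800CW secondary, DRAQ5 DNA stain). IC50, 4-PL fit vs log conc.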

K-Ras G13C = K-Ras G13C (Homo sapiens (Human), UniProt P01116+P62937, G13C); assay: Ras-Raf (BRAF RBD) disruption / FRET / MOA assay, KRAS G13C; assay type: biochemical; conditions: KRAS G13C; Ras-Raf disruption/FRET/MOA assay; read-out: IC50* KRAS G13C FRET data
Chain of K-Ras G13C (P01116-2 other isoform, or with tags, fused parts or gaps G13C): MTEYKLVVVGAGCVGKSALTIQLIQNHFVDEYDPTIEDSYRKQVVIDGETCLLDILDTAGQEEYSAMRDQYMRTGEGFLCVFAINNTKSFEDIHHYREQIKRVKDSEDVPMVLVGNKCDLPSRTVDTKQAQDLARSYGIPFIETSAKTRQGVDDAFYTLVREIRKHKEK
Chain of K-Ras G13C (P62937 whole entry): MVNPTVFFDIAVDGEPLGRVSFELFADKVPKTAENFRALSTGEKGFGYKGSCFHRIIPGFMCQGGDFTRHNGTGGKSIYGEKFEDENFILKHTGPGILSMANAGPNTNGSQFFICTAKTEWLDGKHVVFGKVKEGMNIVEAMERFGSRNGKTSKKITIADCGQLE
In short: (§1)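 Compound-driven ternary complex of nucleotide-loaded Ras with cyclophilin A, disrupting BRAF RBD binding. 10-point 3-fold dilution from 30 μM final, 3 h at 25° C, then anti-His Eu-W1024 (10 nM) and anti-GST allophycocyanin (50 nM) for 1.5 h. IC50 from TR-FRET ratio decrease versus DMSO.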

KRAS G12S = KRAS G12S (Homo sapiens (Human), UniProt P01116+P62937, G12S); assay: Ras-Raf (BRAF RBD) disruption / FRET / MOA assay, KRAS G12S; assay type: biochemical; conditions: Ras-Raf disruption/FRET/MOA assay; class symbols; read-out: KRAS G12S FRET data IC50
Chain of KRAS G12S (P01116-2 other isoform, or with tags, fused parts or gaps G12S): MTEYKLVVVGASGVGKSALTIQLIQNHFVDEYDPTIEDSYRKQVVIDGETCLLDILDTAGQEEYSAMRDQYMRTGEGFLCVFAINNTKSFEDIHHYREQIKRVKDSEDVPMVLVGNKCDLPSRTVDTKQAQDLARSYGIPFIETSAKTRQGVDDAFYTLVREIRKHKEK
Chain of KRAS G12S (P62937 whole entry): as the sequence (P62937 whole entry) above
In short: as §1

NRAS Q61R = NRAS Q61R (Homo sapiens (Human), UniProt P01111+P62937, Q61R); assay: Ras-Raf (BRAF RBD) disruption / FRET / MOA assay, NRAS Q61R; assay type: biochemical; conditions: NRAS Q61R; Ras-Raf disruption/FRET/MOA assay; read-out: IC50* NRAS Q61R FRET data
Chain of NRAS Q61R (P01111 whole entry Q61R): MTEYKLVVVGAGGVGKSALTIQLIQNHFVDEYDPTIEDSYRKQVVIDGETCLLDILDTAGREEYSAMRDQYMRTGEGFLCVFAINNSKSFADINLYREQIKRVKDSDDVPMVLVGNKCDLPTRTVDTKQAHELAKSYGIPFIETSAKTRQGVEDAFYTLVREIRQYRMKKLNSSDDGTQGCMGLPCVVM
Chain of NRAS Q61R (P62937 whole entry): as the sequence (P62937 whole entry) above
In short: (§2)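 Compounds (30 μM top final, 10-point 3-fold dilutions) incubated 3 h at 25° C with nucleotide-loaded Ras, cyclophilin A and BRAF RBD. Detection with 10 nM anti-His Eu-W1024 and 50 nM anti-GST allophycocyanin over another 1.5 h. Lowered TR-FRET ratio relative to DMSO wells gives IC50.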

NRAS Q61K = NRAS Q61K (Homo sapiens (Human), UniProt P01111+P62937, Q61K); assay: Ras-Raf (BRAF RBD) disruption / FRET / MOA assay, NRAS Q61K; assay type: biochemical; conditions: NRAS Q61K; Ras-Raf disruption/FRET/MOA assay; read-out: IC50* NRAS Q61K FRET data
Chain of NRAS Q61K (P01111 whole entry Q61K): as the sequence (P01111 whole entry Q61R) above, with R61K counted along it
Chain of NRAS Q61K (P62937 whole entry): as the sequence (P62937 whole entry) above
In short: as §2

NRAS WT = NRAS WT (Homo sapiens (Human), UniProt P01111+P62937); assay: Ras-Raf (BRAF RBD) disruption / FRET / MOA assay, NRAS WT; assay type: biochemical; conditions: read-out: IC50* NRAS WT FRET data
Chain of NRAS WT (P01111 whole entry): as the sequence (P01111 whole entry Q61R) above, with R61Q counted along it
Chain of NRAS WT (P62937 whole entry): as the sequence (P62937 whole entry) above
In short: as §2

SMILES	pEC50 [1]	pIC50 (K-Ras G13C)	pIC50 (KRAS G12S)	pIC50 (NRAS Q61R)	pIC50 (NRAS Q61K)	pIC50 (NRAS WT)
CO[C@@H](C)c1ncccc1-c1c2c3cc(ccc3n1CC(F)(F)F)-c1cccc(c1)C[C@H](NC(=O)[C@H](C(C)C)N1CC[C@]3(CCN(C(=O)C#CC(C)(C)N(C)C)C3)C1=O)C(=O)N1CCC[C@H](N1)C(=O)OCC(C)(C)C2 (atropisomer, axis not shown) [Example A689]	> 5.30	6.00 to 7.00	6.00 to 7.00	5.00 to 6.00	5.00 to 6.00	5.00 to 6.00
CCn1c(-c2cccnc2[C@H](C)OC)c2c3cc(ccc31)-c1csc(n1)C[C@H](NC(=O)[C@H](C(C)C)N(C)C(=O)N(C)C1CN(C(=O)/C=C/C3CN(C)C3)C1)C(=O)N1CCC[C@H](N1)C(=O)OCC(C)(C)C2 (atropisomer, axis not shown) [Example A690]	> 5.30	6.00 to 7.00	6.00 to 7.00	6.00 to 7.00	6.00 to 7.00	6.00 to 7.00
CO[C@@H](C)c1ncccc1-c1c2c3cc(ccc3n1CC(F)(F)F)-c1cccc(c1)C[C@H](NC(=O)[C@@H](COC1CN(C(=O)C#CC3(C)OCCO3)C1)C(C)C)C(=O)N1CCC[C@H](N1)C(=O)OCC(C)(C)C2 (atropisomer, axis not shown) [Example A703]	> 5.30	5.00 to 6.00	< 5.00	< 5.00	< 5.00	5.00 to 6.00
C=CC(=O)N1CC(N(C)C(=O)N(C)[C@H](C(=O)N[C@H]2Cc3nc(cs3)-c3ccc4c(c3)c(c(-c3cccnc3[C@H](C)OC)n4CC(F)(F)F)CC(C)(C)COC(=O)[C@@H]3CCCN(N3)C2=O)C(C)C)C1 (atropisomer, axis not shown) [Example A711]	> 5.30	7.00 to 8.00	6.00 to 7.00	6.00 to 7.00	7.00 to 8.00	7.00 to 8.00
CCn1c(-c2cccnc2[C@H](C)OC)c2c3cc(ccc31)-c1csc(n1)C[C@H](NC(=O)[C@@H](COC1CN(C(=O)C#CC(C)(C)N(C)C)C1)C(C)C)C(=O)N1CCC[C@H](N1)C(=O)OCC(C)(C)C2 (atropisomer, axis not shown) [Example A721]	> 5.30	5.00 to 6.00	< 5.00	< 5.00	< 5.00	5.00 to 6.00
CO[C@@H](C)c1ncccc1-c1c2c3cc(ccc3n1CC(F)(F)F)-c1cccc(c1)C[C@H](NC(=O)[C@H](C(C)C)N(C)C(=O)[C@H]1CCN(C(=O)C#CC(C)(C)N(C)C)C1)C(=O)N1CCC[C@H](N1)C(=O)OCC(C)(C)C2 (atropisomer, axis not shown) [Example A727]	> 5.30	6.00 to 7.00	5.00 to 6.00	5.00 to 6.00	5.00 to 6.00	5.00 to 6.00
CCn1c(-c2cccnc2)c2c3cc(ccc31)-c1csc(c1)C[C@H](NC(=O)[C@H](C(C)C)N(C)C(=O)[C@H]1CCN(C(=O)C#CCN3CCOCC3)C1)C(=O)N1CCC[C@H](N1)C(=O)OCC(C)(C)C2 [Example A205]	> 5.30	< 5.00	< 5.00	< 5.00	< 5.00	< 5.00
C=CC(=O)N1CC[C@H](C(=O)N(C)[C@H](C(=O)N[C@H]2C[C@H]3CN(CCO3)c3ccc4c(c3)c(c(-c3cccnc3COC)n4CC)CC(C)(C)COC(=O)[C@@H]3CCCN(N3)C2=O)C(C)C)C1 [Example A240]	> 5.30	< 5.00	< 5.00	< 5.00	< 5.00	< 5.00
CCn1c(-c2cccnc2[C@H](C)OC)c2c3cc(ccc31)N1CCO[C@@](C)(C[C@H](NC(=O)[C@H](C(C)C)N(C)C(=O)C3(F)CCN(C(=O)C#CC(C)(C)N(C)C)CC3)C(=O)N3CCC[C@H](N3)C(=O)OCC(C)(C)C2)C1 [Example A550]	> 5.30	6.00 to 7.00	5.00 to 6.00	5.00 to 6.00	5.00 to 6.00	6.00 to 7.00
C=CC(=O)N1CCO[C@H]2CN(C(=O)N(C)[C@H](C(=O)N[C@H]3C[C@H]4CN(CCO4)c4ccc5c(c4)c(c(-c4cccnc4[C@H](C)OC)n5CC)CC(C)(C)COC(=O)[C@@H]4CCCN(N4)C3=O)C(C)C)C[C@H]21 [Example A562]	> 5.30	6.00 to 7.00	5.00 to 6.00	< 5.00	5.00 to 6.00	5.00 to 6.00
